The values below come from US8088827B2, “Use of irbesartan for the preparation of medicinal products that are useful for treating pulmonary hypertension” (Sanofi-Aventis, priority 2001, dated 2012).

Structures are written as SMILES.

Assay [1] concerns pulmonary hypertension induced with monocrotaline. The following applies: reported by L. Cassis et al. and R. Kreutz et al.; cited from earlier work.
The subject of assay [2] is pulmonary hypertension induced by injection of monocrotaline in rats. The assay can be described thus: Survival of rats with monocrotaline-induced pulmonary hypertension. The format is in vivo, Male Sprague-Dawley rats. The procedure:
Male Sprague-Dawley rats weighing about 300 g received a subcutaneous injection of monocrotaline (MCT) at a dose of 80 mg/kg.
The treatment with irbesartan was started either 21 days or 14 days after injection of monocrotaline. Irbesartan was incorporated into the food in powder form. The control animals received food alone.
Throughout the study, the animals were examined daily.
In a first study, irbesartan was administered alone at a dose of 50 mg/kg. In a second study, irbesartan was administered alone at a dose of 30 mg/kg and in combination with hydrochlorothiazide (HCTZ): irbesartan: 30 mg/kg and HCTZ: 10 mg/kg.

Where [3] appears, read: Study 1, irbesartan 50 mg/kg in food, treatment started on the 14th day after MCT 80 mg/kg s.c.
Where [4] appears, read: Study 1, irbesartan 50 mg/kg in food, treatment started on the 21st day after MCT 80 mg/kg s.c.
Setting [5] is: Study 2, treatment started on the 14th day post-MCT, irbesartan 30 mg/kg, HCTZ 10 mg/kg, alone or in combination.

Turning to `CCCCc1nc(Cl)c(CO)n1Cc1ccc(-c2ccccc2-c2nn[nH]n2)cc1` [losartan], the “Effect in the monocrotaline pulmonary hypertension model” value in assay [1] was “no effect”.
As for `CCCCC1=NC2(CCCC2)C(=O)N1Cc1ccc(-c2ccccc2-c2nnn[nH]2)cc1` [Irbesartan], the “Survival time of the MCT-treated rats” value in assay [2] (50 mg/kg/day, either from the 21st day or from the 14th day post-MCT) was “significantly increased the survival time”. For the same compound, in assay [2] (setting [3]), the “Survival to the 25th day” value was 100% (12/12), the “Survival to the 50th day” value is 83% (10/12) and the “Survival to the end of the study (100th day)” value is reported as 50% (6/12). Also, the “Survival to the end of the study (100th day)” value in assay [2] (Study 1, irbesartan 50 mg/kg in food, treatment started on the 14th day after MCT 80 mg/kg s.c., listed as irbesartan) is recorded as 50%. Also, in assay [2] (setting [4]), the “Survival to the 25th day” value was 100% (18/18), the “Survival to the 50th day” value is on record as 72% (13/18) and the “Survival to the end of the study (57th day)” value is reported as 61% (11/18). Also, the “Survival to the end of the study (57th day)” value in assay [2] (Study 1, irbesartan 50 mg/kg in food, treatment started on the 21st day after MCT 80 mg/kg s.c., listed as irbesartan) was determined as 61%. Also, in assay [2] (Study 1, irbesartan 50 mg/kg, treatment started on the 14th day post-MCT, control group 46 days), the “Overall survival time estimated” value was above 93 days. Moreover, the “Median estimated survival time” value in assay [2] (Study 2, treatment started on the 14th day post-MCT, irbesartan 30 mg/kg alone or with HCTZ 10 mg/kg) is 46 days. For the same compound, in assay [2] (setting [5]), the “Survival to the 50th day” value stood at 47.8% and the “Survival to the end of the study (85th day)” value turned out to be 0%.
In the case of `NS(=O)(=O)c1cc2c(cc1Cl)NCNS2(=O)=O` [HCTZ, hydrochlorothiazide], in assay [2] (setting [5]), the “Survival to the 50th day” value is recorded as 25% and the “Survival to the end of the study (85th day)” value came out at 4.2%.
